Source: the supplement of paper PMC11451515

System: NOMO1
Test: cell viability relative to DMSO control; higher = less cytotoxic
Settings: 48 h
Method in brief: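 Leukemia cells (NOMO1 or SEM, 500 cells/well; P12-Ichikawa, 1000 cells/well) were seeded in 5 μl in 1536-well plates after at least four passages of adaptation to each medium. They received library compounds in DMSO by pin dosing, 11 threefold points from 47 μM to 0.79 nM. Luminescence with CellTiter-Glo One was read after 48 h at 37°C. Viability is stated per plate relative to DMSO wells, with cell-free wells as background.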

[1] = HPLM + 10% dialyzed FBS, 0.000781 µM
[2] = HPLM + 10% dialyzed FBS, 0.00234 µM
[3] = HPLM + 10% dialyzed FBS, 0.00702 µM
[4] = HPLM + 10% dialyzed FBS, 0.0211 µM
[5] = HPLM + 10% dialyzed FBS, 0.0632 µM
[6] = HPLM + 10% dialyzed FBS, 0.19 µM
[7] = HPLM + 10% dialyzed FBS, 0.569 µM
[8] = HPLM + 10% dialyzed FBS, 1.71 µM
[9] = HPLM + 10% dialyzed FBS, 5.12 µM
[10] = HPLM + 10% dialyzed FBS, 15.4 µM
[11] = HPLM + 10% dialyzed FBS, 46.1 µM
[12] = RPMI 5 mM glucose + 10% FBS, 0.000781 µM
[13] = RPMI 5 mM glucose + 10% FBS, 0.00234 µM
[14] = RPMI 5 mM glucose + 10% FBS, 0.00702 µM
[15] = RPMI 5 mM glucose + 10% FBS, 0.0211 µM
[16] = RPMI 5 mM glucose + 10% FBS, 0.0632 µM
[17] = RPMI 5 mM glucose + 10% FBS, 0.19 µM
[18] = RPMI 5 mM glucose + 10% FBS, 0.569 µM
[19] = RPMI 5 mM glucose + 10% FBS, 1.71 µM
[20] = RPMI 5 mM glucose + 10% FBS, 5.12 µM
[21] = RPMI 5 mM glucose + 10% FBS, 15.4 µM
[22] = RPMI 5 mM glucose + 10% FBS, 46.1 µM
[23] = RPMI 5 mM glucose + 10% dialyzed FBS, 0.000781 µM
[24] = RPMI 5 mM glucose + 10% dialyzed FBS, 0.00234 µM
[25] = RPMI 5 mM glucose + 10% dialyzed FBS, 0.00702 µM
[26] = RPMI 5 mM glucose + 10% dialyzed FBS, 0.0211 µM
[27] = RPMI 5 mM glucose + 10% dialyzed FBS, 0.0632 µM
[28] = RPMI 5 mM glucose + 10% dialyzed FBS, 0.19 µM
[29] = RPMI 5 mM glucose + 10% dialyzed FBS, 0.569 µM
[30] = RPMI 5 mM glucose + 10% dialyzed FBS, 1.71 µM
[31] = RPMI 5 mM glucose + 10% dialyzed FBS, 5.12 µM
[32] = RPMI 5 mM glucose + 10% dialyzed FBS, 15.4 µM
[33] = RPMI 5 mM glucose + 10% dialyzed FBS, 46.1 µM

Compound | cell viability [1] [%] | cell viability [2] [%] | cell viability [3] [%] | cell viability [4] [%] | cell viability [5] [%] | cell viability [6] [%] | cell viability [7] [%] | cell viability [8] [%] | cell viability [9] [%] | cell viability [10] [%] | cell viability [11] [%] | cell viability [12] [%] | cell viability [13] [%] | cell viability [14] [%] | cell viability [15] [%] | cell viability [16] [%] | cell viability [17] [%] | cell viability [18] [%] | cell viability [19] [%] | cell viability [20] [%] | cell viability [21] [%] | cell viability [22] [%] | cell viability [23] [%] | cell viability [24] [%] | cell viability [25] [%] | cell viability [26] [%] | cell viability [27] [%] | cell viability [28] [%] | cell viability [29] [%] | cell viability [30] [%] | cell viability [31] [%] | cell viability [32] [%] | cell viability [33] [%]
O=C1NC(=O)[C@@H](c2cn3c4c(cccc24)CCC3)[C@@H]1c1c[nH]c2ccccc12 | 95.9 | 99.3 | 98.2 | 104 | 107 | 89.3 | 89.8 | 62.9 | 29.7 | 36.4 | 20.6 | 104 | 116 | 115 | 99.5 | 108 | 104 | 110 | 68.6 | 21.1 | 20.8 | 20.5 | 93.1 | 91.3 | 96.2 | 98.7 | 106 | 98.3 | 114 | 80 | 22.4 | 28.5 | 29
CCC[C@@H]1C[C@@H](C(=O)N[C@@H]([C@H]2O[C@H](SC)[C@H](O)[C@@H](O)[C@H]2O)[C@@H](C)O)N(C)C1.Cl | 103 | 121 | 123 | 122 | 125 | 128 | 110 | 100 | 79 | 96 | 68.8 | 129 | 121 | 107 | 111 | 114 | 111 | 124 | 103 | 111 | 124 | 111 | 118 | 112 | 119 | 105 | 119 | 109 | 111 | 108 | 107 | 104 | 98
O=[N+]([O-])c1cn2c(n1)OC[C@@H](OCc1ccc(OC(F)(F)F)cc1)C2 |  |  |  |  |  |  |  |  |  |  |  |  |  |  |  |  |  |  |  |  |  |  | 120 | 141 | 115 | 126 | 145 | 142 | 148 | 118 | 138 | 139 | 120
C[N]1C=NC=C1[C@@](N)(C2=CC=C(Cl)C=C2)C3=CC=C4N(C)C(=O)\C=C(\C5=CC=CC(=C5)Cl)C4=C3 | 108 | 98.5 | 112 | 129 | 91.5 | 95.4 | 84.9 | 83.4 | 76.2 | 73.5 | 47.2 | 100 | 95.6 | 95.5 | 93.2 | 102 | 94.2 | 90.3 | 84.8 | 85.4 | 82.6 | 52.8 | 112 | 111 | 121 | 106 | 110 | 97.3 | 97.1 | 87.7 | 80.9 | 67.4 | 41.7
COc1ccc(Cc2nccc3cc(OC)c(OC)cc23)cc1OC |  |  |  |  |  |  |  |  |  |  |  | 115 | 118 | 124 | 117 | 105 | 108 | 138 | 110 | 103 | 114 | 23.3 |  |  |  |  |  |  |  |  |  |  | 
NC(=O)c1ccc(-c2nc(-c3ccc4c(c3)OCCO4)c(-c3ccccn3)[nH]2)cc1 |  |  |  |  |  |  |  |  |  |  |  | 105 | 104 | 104 | 106 | 118 | 119 | 121 | 114 | 122 | 107 | 114 | 121 | 119 | 119 | 118 | 134 | 113 | 131 | 125 | 114 | 116 | 119
CC1(C)[C@@H](O[C@H]2O[C@H](C(=O)O)[C@@H](O)[C@H](O)[C@H]2O[C@@H]2O[C@H](C(=O)O)[C@@H](O)[C@H](O)[C@H]2O)CC[C@]2(C)[C@H]3C(=O)C=C4[C@@H]5C[C@@](C)(C(=O)O)CC[C@]5(C)CC[C@@]4(C)[C@]3(C)CC[C@@H]12 |  |  |  |  |  |  |  |  |  |  |  |  |  |  |  |  |  |  |  |  |  |  | 109 | 123 | 134 | 142 | 154 | 145 | 136 | 160 | 154 | 140 | 161
COCCOC(=O)C/1=C(C)/NC/2=C(C1C3=CC=CC(=C3)O)/C(=O)CC(C2)C4=C(OC)C=CC=C4 (stereo not drawn) | 96.9 | 105 | 93.2 | 118 | 116 | 104 | 124 | 97.9 | 102 | 87.5 | 59.3 | 82.5 | 89.6 | 110 | 118 | 119 | 99.7 | 99.7 | 99.5 | 97.3 | 96.9 | 78.5 | 89.4 | 105 | 99.7 | 99.6 | 114 | 109 | 112 | 99.2 | 109 | 91.4 | 85.2
COC1=CC=C2Nc3cc(Cl)ccc3C(N=C3C=C(CN4CCCC4)C(=O)C(CN4CCCC4)=C3)=C2N1 |  |  |  |  |  |  |  |  |  |  |  | 105 | 103 | 120 | 110 | 133 | 127 | 125 | 135 | 116 | 119 | 119 |  |  |  |  |  |  |  |  |  |  | 
